Assay results reported in ChEMBL document CHEMBL1821647, “Synthesis and antioxygenic activities of seabuckthorn flavone-3-ols and analogs” (Bioorg Med Chem Lett, 2011).

Tested on: Radical scavenging activity
Experiment: Antioxidant activity assessed as DPPH free radical scavenging activity
Format: functional

Compound	EC50 [µg]
O=C(O)c1cc(O)c(O)c(O)c1 [GALLIC ACID]	3.8
COc1ccc(C2Oc3cc(O)cc(O)c3C(=O)C2O)cc1O (centres undefined) [TAMARAXETIN]	> 100
COc1cc(C2Oc3cc(O)cc(O)c3C(=O)C2O)ccc1O (centres undefined) [DIHYDROISORHAMNETIN]	> 100
O=c1c(O)c(-c2ccc(O)c(O)c2)oc2c(O)c(O)cc(O)c12 [GOSSYPETIN]	5.5
O=c1c(O)c(-c2ccc(O)c(O)c2)oc2c(O[C@@H]3O[C@H](CO)[C@@H](O)[C@H](O)[C@H]3O)c(O)cc(O)c12	25.5
O=c1c(O)c(-c2ccc(O)c(O)c2)oc2cc(O)cc(O)c12 [QUERCETIN]	14.4
O=C1c2c(O)cc(O)cc2O[C@H](c2ccc(O)c(O)c2)[C@H]1O [(+)-TAXIFOLIN]	24
O=C1c2c(O)cc(O)cc2O[C@H](c2ccc(O)cc2)[C@H]1O [DIHYDROKAEMPFEROL]	> 100
C[C@@H]1O[C@@H](OC[C@H]2O[C@@H](Oc3c(-c4ccc(O)c(O)c4)oc4cc(O)cc(O)c4c3=O)[C@H](O)[C@@H](O)[C@@H]2O)[C@H](O)[C@H](O)[C@H]1O [RUTIN]	15.5
COc1cc(-c2oc3cc(O)cc(O)c3c(=O)c2O)ccc1O [ISORHAMNETIN]	26.2

Other lines, results leading:

EC50 [µg]	Compound
4.8	O=c1oc2c(O)c(O)cc3c(=O)oc4c(O)c(O)cc1c4c23 [ELLAGIC ACID]
10.6	COc1c(O)cc2oc(-c3ccc(O)c(O)c3)c(O)c(=O)c2c1O [PATULETIN]
10.5	O=c1c(O)c(-c2ccc(O)c(O)c2)oc2cc(O)c(O)c(O)c12 [QUERCETAGETIN]
97	COc1ccc(-c2oc3cc(O)cc(O)c3c(=O)c2O)cc1 [KAEMPFERIDE]
> 100	COc1ccc(C2Oc3cc(O)cc(O)c3C(=O)C2O)cc1 (centres undefined) [DIHYDROKAEMPFERIDE]
16	O=C(O)[C@H]1O[C@@H](Oc2c(O)cc(O)c3c(=O)c(O)c(-c4ccc(O)c(O)c4)oc23)[C@H](O)[C@@H](O)[C@@H]1O [HIBIFOLIN]
12.5	Cc1c(C)c2c(c(C)c1O)CCC(C)(C(=O)O)O2 (centres undefined) [TROLOX]
> 100	COc1ccc(-c2oc3cc(O)cc(O)c3c(=O)c2O)cc1O [TAMARIXETIN]
14.6	O=c1c(O)c(-c2ccc(O)cc2)oc2cc(O)cc(O)c12 [KAEMPFEROL]
